Test results published in patent publication US8853424B2 (Japan Science and Technology Agency, priority 2008, dated 2014).
Like-named read-outs stand apart in the source and are kept apart here.

What was measured:
[1] = test system: transglutaminase (TGase); experiment: Measurement of TG (TGase inhibitory activity, monodansyl cadaverine / N,N-dimethylcasein fluorescence, FDSS 3000); type: biochemical
Method in brief: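 Compound (1 μL of 10 mM stock) added to 0.1 mL reaction: 100 mM HEPES-NaOH pH 7.5, 1 mM CaCl2, 20 μM monodansyl cadaverine, 0.05 mg/mL N,N-dimethylcasein, 5 μg/mL TGase. Rate of fluorescence change at 340 nm measured; DMSO control set to 100; TG50 is the concentration halving activity.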

[2] = test system: Truncated N-terminal huntington 150 Q-EGFP-Neuron 2a cells; experiment: Measurement of x-Fold (polyglutamine aggregation inhibitory activity); type: cell-based
Procedure: In the present invention, the polyglutamine aggregation inhibitory activity (x-Fold) can be measured, for example, by the method described in the Example.
The number of the aggregated cells, and the total number of cells were counted by Array Scan V T1 (manufactured by Cellomics, Pittuburg, USA), and the ratio of the aggregated cells to the total number of cells was determined (x-Fold). […]

[3] = test system: SOC (store operated calcium channel); experiment: Measurement of SOC IC50 (thapsigargin store depletion, calcium re-addition, CHO cells); type: cell-based; conditions: read-out: SOC IC50
Procedure: The SOC (store operated calcium channel)-suppressive action can be measured by the method described in the Example and using, for example, FDSS 3000.
CHO cell culture medium was replaced with a BSS solution which is an extracellular fluidfree of calcium, the compound of the present invention was added 1 min later, and 1 μM thapsigargin was allowed to act thereon 2 min later to deplete intracellular calcium store. […]

[4] = TGase activity with compound (10 mM, 1 μL in 0.1 ml enzyme reaction solution), DMSO control taken as 100
[5] = TGase inhibitory activity measurement, unit not given
[6] = polyglutamine aggregation inhibitory activity, Table 1
[7] = polyglutamine aggregation, Truncated N-terminal huntington 150 Q-EGFP-Neuron 2a cells
[8] = ratio of aggregated cells to total number of cells, compound 20 μM, 20 hr, almost 1 without compound, smaller = stronger inhibition
[9] = CHO cells, 1 μM thapsigargin, 2 mM calcium chloride
[10] = TGase inhibitory activity value, Table 1
[11] = Cricetulus griseus, CHO, CHO cells, 1 μM thapsigargin, 2 mM calcium chloride
[12] = Cricetulus griseus, CHO, Table 1

## CN(C)CCOB(c1ccc(COCc2ccc(B(OCCN(C)C)c3ccc(C(F)(F)F)cc3)cc2)cc1)c1ccc(C(F)(F)F)cc1 [Example 424, bis(4,4′-(p-trifluoromethylphenyl-N,N-dimethylaminoethoxyboryl)benzyl)ether]
[1]; [4]
  TGase activity remaining (% of DMSO control = 100): 22
[1]; [5]
  TGase activity remaining (% of DMSO control = 100): 22
[2]; [6]
  x-Fold: 0.69
[2]; [7]
  x-Fold: 1.03
[2]; [8]
  x-Fold: 1.03
[3]; [9]
  IC50: 1200 nM

## Cc1ccc(B(OCC(N)c2ccccc2)c2ccc(C)c(Cl)c2)cc1Cl (centres unmarked) [Example 214]
[1]; [4]
  TGase activity remaining (% of DMSO control = 100): −7
[1]; [10]
  TGase activity remaining (% of DMSO control = 100): −7
[2]; [6]
  x-Fold: 0.90
[2]; [8]
  x-Fold: 0.90
[3]; [11]
  IC50: 2000 nM
[3]; [12]
  IC50: 2000 nM

## NC(=O)NCCCC(N)C(=O)OB(c1ccccc1)c1ccccc1 (centres unmarked) [Example 307, diphenyl(citrullinate-O,N)borane]
[1]; [4]
  TGase activity remaining (% of DMSO control = 100): 54
[1]; [10]
  TGase activity remaining (% of DMSO control = 100): 54
[2]; [6]
  x-Fold: 1.06
[2]; [8]
  x-Fold: 1.06
[3]; [11]
  IC50: 500 nM
[3]; [12]
  IC50: 500 nM

## CCCCNCCOB(c1ccccc1)c1cccc(COCc2cccc(B(OCCNCCCC)c3ccccc3)c2)c1 [Example 473, bis(3,3′-(phenyl-N-butylaminoethoxyboryl)benzyl)ether]
[1]; [5]
  TGase activity remaining (% of DMSO control = 100): −4
[2]; [7]
  x-Fold: 0.96
[2]; [8]
  x-Fold: 0.96
[3]; [9]
  IC50: 500 nM

## CCCCNCCOB(c1ccccc1)c1ccc(COCc2ccc(B(OCCNCCCC)c3ccccc3)cc2)cc1 [Example 454, bis(4,4′-(phenyl-butylaminoethoxyboryl)benzyl)ether]
[1]; [4]
  TGase activity remaining (% of DMSO control = 100): 15
[1]; [5]
  TGase activity remaining (% of DMSO control = 100): 15
[2]; [7]
  x-Fold: 0.97
[2]; [8]
  x-Fold: 0.97
[3]; [9]
  IC50: 500 nM

## Cc1ccc(B(SCCN)c2ccc(C)c(Cl)c2)cc1Cl [Example 32, di(3-chloro-4-methylphenyl)-2-aminoethylthioborane]
[1]; [4]
  TGase activity remaining (% of DMSO control = 100): 12
[1]; [10]
  TGase activity remaining (% of DMSO control = 100): 12
[2]; [6]
  x-Fold: 1.02
[2]; [8]
  x-Fold: 1.02
[3]; [11]
  IC50: 1000 nM
[3]; [12]
  IC50: 1000 nM

## c1ccc(B(OCc2ccccn2)c2cccc(COCc3cccc(B(OCc4ccccn4)c4ccccc4)c3)c2)cc1 [Example 467, bis(3,3′-(phenyl-2-pyridylmethoxyboryl)benzyl)ether]
[1]; [4]
  TGase activity remaining (% of DMSO control = 100): 60
[1]; [5]
  TGase activity remaining (% of DMSO control = 100): 60
[2]; [7]
  x-Fold: 0.98
[2]; [8]
  x-Fold: 0.98
[3]; [9]
  IC50: 250 nM

## NCCSB(c1ccccc1)c1ccc(-c2ccc(B(SCCN)c3ccccc3)cc2)cc1 [Example 9, 4,4′(phenyl-2-aminoethylthioboryl)diphenyl]
[1]; [4]
  TGase activity remaining (% of DMSO control = 100): 12
[1]; [10]
  TGase activity remaining (% of DMSO control = 100): 12
[2]; [6]
  x-Fold: 0.87
[2]; [8]
  x-Fold: 0.87
[3]; [9]
  IC50: 500 nM

## NC(=O)CC(N)C(=O)OB(c1ccccc1)c1ccc(Oc2ccc(B(O)c3ccccc3)cc2)cc1 (single isomer, unassigned) [Example 6, (4-(phenylasparagineboryl)phenyl)(4′-(phenylhydroxyboryl)phenyl)ether]
[1]; [4]
  TGase activity remaining (% of DMSO control = 100): 23
[1]; TGase inhibitory activity value, Table 1, listed as 7132
  TGase activity remaining (% of DMSO control = 100): 23
[2]; polyglutamine aggregation inhibitory activity, Table 1, listed as 7132
  x-Fold: 1.01
[2]; [8]
  x-Fold: 1.01
[3]; [12]
  IC50: 200 nM

## CN(C)CCOB(c1ccccc1)c1cccc(COCc2cccc(B(OCCN(C)C)c3ccccc3)c2)c1 [Example 464, bis(3,3′-(phenyl-dimethylaminoethoxyboryl)benzyl)ether]
[1]; [4]
  TGase activity remaining (% of DMSO control = 100): 41
[1]; TGase inhibitory activity measurement, unit not given, listed as 3021
  TGase activity remaining (% of DMSO control = 100): 41
[2]; polyglutamine aggregation, Truncated N-terminal huntington 150 Q-EGFP-Neuron 2a cells, listed as 3021
  x-Fold: 0.76
[2]; [8]
  x-Fold: 0.76
[3]; CHO cells, 1 μM thapsigargin, 2 mM calcium chloride, no unit printed
  IC50: 800 nM

## NCCCC(N)C(=O)OB(c1ccccc1)c1ccc(Oc2ccc(B(OC(=O)C(N)CCCN)c3ccccc3)cc2)cc1 (centres unmarked) [Example 435, bis(4,4′-(phenyl-ornithineboryl)phenyl)ether]
[1]; [4]
  TGase activity remaining (% of DMSO control = 100): 26
[1]; [5]
  TGase activity remaining (% of DMSO control = 100): 26
[2]; [7]
  x-Fold: 0.84
[2]; [8]
  x-Fold: 0.84
[3]; [9]
  IC50: 2000 nM

## O=C1O[B-](c2ccccc2)(c2ccccc2)[NH2+]C1CO (centres unmarked) [Example 255, diphenyl(serinate-O,N)borane]
[1]; [4]
  TGase activity remaining (% of DMSO control = 100): 113
[1]; [10]
  TGase activity remaining (% of DMSO control = 100): 113
[2]; [6]
  x-Fold: 0.94
[2]; [8]
  x-Fold: 0.94
[3]; [11]
  IC50: 500 nM
[3]; [12]
  IC50: 500 nM

## CC(CNCCN)OB(c1ccccc1)c1cccc(COCc2cccc(B(OC(C)CNCCN)c3ccccc3)c2)c1 (centres unmarked) [Example 470, bis(3,3′-(phenyl-N-aminoethyl-1-methyl-2-aminoethoxyboryl)benzyl)ether]
[1]; [4]
  TGase activity remaining (% of DMSO control = 100): 19
[1]; [5]
  TGase activity remaining (% of DMSO control = 100): 19
[2]; [7]
  x-Fold: 1.02
[2]; [8]
  x-Fold: 1.02
[3]; [9]
  IC50: 300 nM

## NCC(OB(c1ccccc1)c1ccc(Oc2ccc(B(OC(CN)c3ccccc3)c3ccccc3)cc2)cc1)c1ccccc1 (centres unmarked) [Example 434, bis(4,4′-(phenyl-2-amino-1-phenylethoxyboryl)phenyl)ether]
[1]; [4]
  TGase activity remaining (% of DMSO control = 100): 43
[1]; [5]
  TGase activity remaining (% of DMSO control = 100): 43
[2]; [6]
  x-Fold: 0.06
[2]; [7]
  x-Fold: 0.60
[2]; [8]
  x-Fold: 0.60
[3]; [9]
  IC50: 400 nM
[3]; Table 1
  IC50: 1500 nM

## O=C(OB(c1ccccc1)c1ccccc1)C1CC(O)CN1 (centres unmarked) [Example 268, diphenyl(hydroxyprolinate-O,N)borane]
[1]; [4]
  TGase activity remaining (% of DMSO control = 100): 103
[1]; [10]
  TGase activity remaining (% of DMSO control = 100): 103
[2]; [6]
  x-Fold: 0.96
[2]; [8]
  x-Fold: 0.96
[3]; [11]
  IC50: 5000 nM
[3]; [12]
  IC50: 5000 nM

## OB(c1ccc(Oc2ccc(B(O)c3ccc(C(F)(F)F)cc3)cc2)cc1)c1ccc(C(F)(F)F)cc1 [Example 325, bis(4-(4-trifluoromethylphenylhydroxyboryl)phenyl)ether]
[1]; [4]
  TGase activity remaining (% of DMSO control = 100): 92
[1]; [10]
  TGase activity remaining (% of DMSO control = 100): 92
[2]; [6]
  x-Fold: 0.99
[2]; [8]
  x-Fold: 0.99
[3]; [11]
  IC50: 4000 nM
[3]; [12]
  IC50: 4000 nM

## NC(=O)CC(N)C(=O)OB(c1ccc(COCc2ccc(B(OC(=O)C(N)CC(N)=O)c3ccc(C(F)(F)F)cc3)cc2)cc1)c1ccc(C(F)(F)F)cc1 (centres unmarked) [Example 425, bis(4,4′-(p-trifluoromethylphenyl-asparagineboryl)benzyl)ether]
[1]; [4]
  TGase activity remaining (% of DMSO control = 100): 130
[2]; [8]
  x-Fold: 0.9
[3]; [9]
  IC50: 500 nM

## CNCCOB(c1ccc(COCc2ccc(B(OCCNC)c3ccc(C)c(Cl)c3)cc2)cc1)c1ccc(C)c(Cl)c1 [Example 421, bis(4,4′-(3-chloro-4-methylphenyl-N-methylaminoethoxyboryl)benzyl)ether]
[1]; [4]
  TGase activity remaining (% of DMSO control = 100): −1
[1]; [5]
  TGase activity remaining (% of DMSO control = 100): −1
[2]; [6]
  x-Fold: 0.87
[2]; [7]
  x-Fold: 1.03
[2]; [8]
  x-Fold: 1.03
[3]; [9]
  IC50: 1200 nM

## c1ccc(B(OCC2CCCN2)c2cccc(COCc3cccc(B(OCC4CCCN4)c4ccccc4)c3)c2)cc1 (centres unmarked) [Example 460, bis(3,3′-(phenyl-2-pyrrolidinomethoxyboryl)benzyl)ether]
[1]; [4]
  TGase activity remaining (% of DMSO control = 100): 26
[1]; [5]
  TGase activity remaining (% of DMSO control = 100): 26
[2]; [7]
  x-Fold: 0.95
[2]; [8]
  x-Fold: 0.95
[3]; [9]
  IC50: 400 nM

## COc1ccc(B(OCCN)c2ccc(COCc3ccc(B(OCCN)c4ccc(OC)cc4)cc3)cc2)cc1 [Example 412, bis(4,4′-(p-methoxyphenyl-aminoethoxyboryl)benzyl)ether]
[1]; [4]
  TGase activity remaining (% of DMSO control = 100): 65
[1]; [5]
  TGase activity remaining (% of DMSO control = 100): 65
[2]; [7]
  x-Fold: 0.89
[2]; [8]
  x-Fold: 0.89
[3]; [9]
  IC50: 2000 nM

## NCCCCC(N)C(=O)OB(c1ccccc1)c1cccc(COCc2cccc(B(OC(=O)C(N)CCCCN)c3ccccc3)c2)c1 (centres unmarked) [Example 475, bis(3,3′-(phenyl-lysineboryl)benzyl)ether]
[1]; [4]
  TGase activity remaining (% of DMSO control = 100): 21
[1]; [5]
  TGase activity remaining (% of DMSO control = 100): 21
[2]; [7]
  x-Fold: 1.01
[2]; [8]
  x-Fold: 1.01
[3]; [9]
  IC50: 600 nM

## c1ccc(B(OCC2CCCCN2)c2cccc(COCc3cccc(B(OCC4CCCCN4)c4ccccc4)c3)c2)cc1 (centres unmarked) [Example 463, bis(3,3′-(phenyl-2-piperidylmethoxyboryl)benzyl)ether]
[1]; [4]
  TGase activity remaining (% of DMSO control = 100): 24
[1]; [5]
  TGase activity remaining (% of DMSO control = 100): 24
[2]; [7]
  x-Fold: 0.92
[2]; [8]
  x-Fold: 0.92
[3]; [9]
  IC50: 300 nM

## 4,4′-((2-aminoethoxy)(3-chloro-4-methylphenyl)boryl)diphenylether [Example 249]
[1]; [4]
  TGase activity remaining (% of DMSO control = 100): 25
[1]; [10]
  TGase activity remaining (% of DMSO control = 100): 25
[2]; [6]
  x-Fold: 0.74
[2]; [8]
  x-Fold: 0.74
[3]; [9]
  IC50: 300 nM
